Measurements reported in US8129377B2, “6-(pyridinyl)-4-pyrimidone derivates as tau protein kinase 1 inhibitors” (Mitsubishi Tanabe Pharma Corporation, priority 2004, dated 2012).

These compounds were tested against T1, bovine cerebral TPK1 (Bos taurus, UniProt A0A3Q1MT31) (assay: Inhibitory activity against P-GS1 phosphorylation by bovine cerebral TPK1). Conditions: 41.7 μM [γ-32P] ATP, 25° C., 2 hours.
T1 construct: from tissue; host or cells: bovine brain (cerebrum)
Assay type: biochemical
Description: Experiment 1: Inhibitory Activity of the Medicament of the Present Invention Against P-GS1 Phosphorylation by Bovine Cerebral TPK1
A mixture containing 100 mM MES-sodium hydroxide (pH 6.5), 1 mM magnesium acetate, 0.5 mM EGTA, 5 mM β-mercaptoethanol, 0.02% Tween 20, 10% glycerol, 12 μg/ml P-GS1, 41.7 μM [γ^−32P] ATP (68 kBq/ml), bovine cerebral TPK1 and a compound shown in Table (a final mixture contained 1.7% DMSO deriving from a solution of a test compound prepared in the presence of 10% DMSO) was used as a reaction system. The phosphorylation was started by adding ATP, and the reaction was conducted at 25° C. for 2 hours, and then stopped by adding 21% perchloric acid on ice cooling. The reaction mixture was centrifuged at 12,000 rpm for 5 minutes and adsorbed on P81 paper (Whatmann), and then the paper was washed four times with 75 mM phosphoric acid, three times with water and once with acetone. The paper was dried, and the residual radioactivity was measured using a liquid scintillation counter.

T1 sequence (A0A3Q1MT31 1-419): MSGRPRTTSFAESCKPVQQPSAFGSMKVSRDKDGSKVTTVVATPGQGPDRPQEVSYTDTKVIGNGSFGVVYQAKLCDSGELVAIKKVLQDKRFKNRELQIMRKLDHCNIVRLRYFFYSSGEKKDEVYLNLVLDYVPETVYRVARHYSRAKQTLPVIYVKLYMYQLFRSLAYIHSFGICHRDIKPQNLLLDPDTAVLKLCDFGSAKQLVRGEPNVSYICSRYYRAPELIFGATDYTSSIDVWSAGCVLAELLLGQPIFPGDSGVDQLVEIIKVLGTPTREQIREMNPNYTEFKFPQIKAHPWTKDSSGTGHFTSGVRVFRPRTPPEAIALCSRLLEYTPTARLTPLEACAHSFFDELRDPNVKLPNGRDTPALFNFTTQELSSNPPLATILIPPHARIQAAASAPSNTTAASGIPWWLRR

| IC50 [nM] | Compound |
| --- | --- |
| 7.9 | Cn1c(N2CCO[C@@H](c3cc4ccccc4o3)C2)nc(-c2ccncc2F)cc1=O [compound 4] |
| 1.4 | Cn1c(N2CCO[C@@H](c3c(F)cccc3Cl)C2)nc(-c2ccncc2F)cc1=O [compound 5] |
| 3.7 | Cn1c(N2CCN[C@@H](c3ccc(N4CCCCC4)cc3)C2)nc(-c2ccncc2F)cc1=O [compound 14, 6-(3-Fluoro-pyridin-4-yl)-3-methyl-2-((3S)-3-(4-piperidin-1-yl-phenyl)-piperazin-1-yl)-3H-pyrimidin-4-one] |
| 1.7 | Cn1c(N2CCO[C@@H](c3ccc(N4CCC(N5CCCC5)CC4)cc3)C2)nc(-c2ccncc2F)cc1=O [compound 17] |
| 0.53 | Cn1c(N2CCN[C@@H](c3ccc(N4CCN(c5ccccc5)CC4)cc3)C2)nc(-c2ccncc2F)cc1=O [compound 22] |
| 0.73 | COc1ccc(-c2ccc([C@H]3CN(c4nc(-c5ccncc5F)cc(=O)n4C)CCN3)cc2)cc1 [compound 41] |
| 6.4 | Cn1c(N2CCC(c3ccc(N4CCCC4)cc3)CC2)nc(-c2ccncc2F)cc1=O [compound 56] |
| 1.2 | CC(C)Oc1ccc(-c2ccc([C@H]3CN(c4nc(-c5ccncc5F)cc(=O)n4C)CCN3)cc2)cc1 [compound 92] |
| 8.2 | Cn1c(N2CCC(Nc3cccc(C(F)(F)F)c3)CC2)nc(-c2ccncc2F)cc1=O [compound 105] |
| 2.9 | Cn1c(N2CCO[C@@H](c3ccc(N)cc3)C2)nc(-c2ccncc2F)cc1=O [compound 158, 2-((2S)-2-(4-Aminophenyl)morpholin-4-yl)-6-(3-fluoropyridin-4-yl)-3-methyl-3H-pyrimidin-4-one] |
| 13 | CNc1cc(-c2cc(=O)n(C)c(N3CCO[C@@H](c4cc(C#N)ccc4OC)C3)n2)ccn1 [compound 196] |
| 2.2 | Cn1c(N2CCO[C@@H](c3ccc(NC(=O)C4CCCCC4)cc3)C2)nc(-c2ccncc2F)cc1=O [compound 209] |
| 0.51 | Cc1cc(C2CN(c3nc(-c4ccncc4F)cc(=O)n3C)CCO2)ccc1Br (stereo not drawn) [compound 210] |
| 5.4 | CN(c1ccc([C@H]2CN(c3nc(-c4ccncc4F)cc(=O)n3C)CCO2)cc1)c1ccccn1 [compound 212] |
| 4.2 | Cn1c(N2CCO[C@@H](c3ccc(NC(=O)C(C)(C)C)cc3)C2)nc(-c2ccncc2F)cc1=O [compound 215] |
| 2.7 | Cn1c(N2CCO[C@@H](c3ccc(N[C@@H]4CCOC4)cc3)C2)nc(-c2ccncc2F)cc1=O [compound 220, 2-((2S)-2-(4-(N-((3R)-Tetrahydrofuran-3-yl)amino)phenyl)morpholin-4-yl)-3-methyl-6-(3-fluoropyridin-4-yl)-3H-pyrimidin-4-one] |
| 3.9 | CN(c1ccc([C@H]2CN(c3nc(-c4ccncc4F)cc(=O)n3C)CCO2)cc1)[C@@H]1CCOC1 [compound 221, 6-(3-Fluoropyridin-4-yl)-2-((2S)-2-(4-(N-methyl-N-((3R)-tetrahydrofuran-3yl)amino)phenyl)morpholin-4-yl)-3-methyl-3H-pyrimidin-4-one] |
| 1.1 | Cn1c(N2CCO[C@@H](c3ccc(OCCN4CCOCC4)cc3)C2)nc(-c2ccncc2F)cc1=O [compound 224] |
| 6.4 | CC(=O)N1CCC(Oc2ccc([C@H]3CN(c4nc(-c5ccncc5F)cc(=O)n4C)CCO3)cc2)CC1 [compound 238, 2-((2S)-2-(4-(1-Acetylpiperidin-4-yloxy)phenyl)morpholin-4-yl)-6-(3-fluoropyridin-4-yl)-3-methyl-pyrimidin-4-one] |
| 13 | COc1cc(Cl)ccc1[C@H]1CN(c2nc(-c3ccncc3Cl)cc(=O)n2C)CCO1 [compound 247] |
| 0.27 | CN(C)CC(=O)Nc1ccc([C@H]2CN(c3nc(-c4ccncc4F)cc(=O)n3C)CCO2)cc1 [compound 288, N^2,N^2-Dimethyl-N^1-(4-((2S)-4-(3-methyl-4-oxo-3,4-dihydro-6-(3-fluoropyridin-4-yl)pyrimidin-2-yl)morpholin-2-yl)phenyl)glycinamide] |
| 1.2 | COC(=O)Nc1ccc([C@H]2CN(c3nc(-c4ccncc4F)cc(=O)n3C)CCO2)cc1 [compound 295, Methyl (4-((2S)-4-(6-(3-fluoropyridin-4-yl)-3-methyl-4-oxo-3H-pyrimidin-2-yl)morpholin-2-yl)phenyl)carbamate] |
| 11 | CN(C)C(=O)Nc1ccc([C@H]2CN(c3nc(-c4ccncc4F)cc(=O)n3C)CCO2)cc1 [compound 298, N′-(4-((2S)-4-(6-(3-Fluoropyridin-4-yl)-3-methyl-4-oxo-3H-pyrimidin-2-yl)morpholin-2-yl)phenyl)-N,N-dimethylurea] |
| 6.2 | Cn1c(N2CCC[C@H](c3ccc(Br)cc3)C2)nc(-c2ccncc2F)cc1=O [compound 303, 2-((3R)-3-(4-Bromophenyl)piperidin-1-yl)-6-(3-fluoropyridin-4-yl)-3-methyl-3H-pyrimidine-4-one] |
| 1.2 | Cn1c(N2CCOC(c3ccc4c(c3)CCC(=O)N4)C2)nc(-c2ccncc2F)cc1=O (stereo not drawn) [compound 305] |
| 7.4 | Cn1c(N2CCO[C@@H](c3ccc(C(=O)N4CCOCC4)cc3)C2)nc(-c2ccncc2F)cc1=O [compound 310] |
| 0.48 | COc1ccc(NC(C)=O)cc1[C@H]1CN(c2nc(-c3ccncc3F)cc(=O)n2C)CCO1 [compound 313] |
| 4.1 | CC(=O)Nc1cccc([C@H]2CN(c3nc(-c4ccncc4F)cc(=O)n3C)CCO2)c1 [compound 314] |
| 4.8 | Cn1c(N2CCN[C@@H](c3ccc(-c4ncon4)cc3)C2)nc(-c2ccncc2F)cc1=O [compound 322, 6-(3-Fluoropyridin-4-yl)-3-methyl-2-((3S)-3-(4-([1,2,4]oxadiazol-3-yl)phenyl)piperazin-1-yl)-3H-pyrimidin-4-one] |
| 2.9 | Cc1nc(-c2ccc([C@H]3CN(c4nc(-c5ccncc5F)cc(=O)n4C)CCN3)cc2)no1 [compound 334, 6-(3-Fluoropyridin-4-yl)-3-methyl-2-((3S)-3-(4-(5-methyl-[1,2,4]oxadiazol-3-yl)phenyl)piperazin-1-yl)-3H-pyrimidin-4-one] |
